The source of these data is patent publication US12551173B2, “System and method for single-scan rest-stress cardiac PET” (The General Hospital Corporation, priority 2012, dated 2026).

Where “and” joins values, the source holds several entries; their conditions need not be identical. Equal values may be shown once.

The test system of data set [1] is mitochondrial complex I. Conditions: cited from earlier work.
Data set [2] has as its system myocardium. The experiment in a line: 100-min dynamic 18F-Flurpiridaz PET in cynomolgus monkey, 2-compartment model fit. Format: in vivo. An excerpt:
Due to the relatively short measurements obtained in human studies, longer duration ^18F-Flurpiridaz measurements were made in a healthy 4.1-kg cynomolgus monkey. The animal was imaged under resting state and general anesthesia with 1%-2% isoflurane mixed with 100% oxygen. A 100-min dynamic ^18F-Flurpiridaz PET study, with 1.25 mCi injected dose, was acquired with a microPET P4 system from Concorde Microsystems, Inc. Images were reconstructed with filtered back-projection (FBP) into 24×5-s, 6×30-s, 5×60-s, and 18×300-s frames. The LV and RV input functions were extracted with GFADS. A region of interest was drawn over the myocardium and used to calculate the time-activity curve, which was then fitted to the standard four parameter, two-compartment model, with corrections for blood-to-tissue spillover in Eq. (3). Compartment model kinetic analysis tool (COMKAT) (Muzic Jr., R. F., et al., J. Nucl. Med. 42, 636-645, 2001; Fang, Y. H., et al., J. Nucl. Med. 51, 77-84, 2010) under MATLAB R2009a (Mathworks, Natick MA) was used to perform the nonlinear least squares for parameter estimation with the frame duration used as the statistical weight. After the kinetic parameters were estimated from the 100-min time-activity curve, the data were refit while progressively reducing the observation period. First, K1, k2, f1, and fRV were estimated as a function of study duration of the time-activity curves, ranging from 1 to 10 min. Due to the short measurement periods used, k3 and k4 were fixed to the values estimated by the 100-min data. The parameter variance of each parameter was approximated by the covariance matrix from the nonlinear least squares fitting. Then, the duration of the time-activity curve was fixed to 10 min and estimation of K1, k2, f1, and fRV was repeated with k3 fixed at values ranging from 0 to 0.1, incremented by 0.005. k4 was fixed as the value derived from fitting the 100-min data. Again, variance of each estimated parameter was approximated by the covariance matrix.
Still another aspect of the present system and methods includes ^18F-Flurpiridaz myocardial blood flow estimation using dynamic PET in non-human primates. To evaluate the parameter precision when estimating the MBF, a long dynamic study was conducted on a 4.1-kg cynomolgus monkey and the MBF precision was examined with different durations of data being used for kinetic modeling. A dynamic ^18F-Flurpiridaz imaging study was performed on a microPET P4. The animal was imaged under the resting state for 100 minutes with an injected dose of 1.25 mCi. […] The LV (FIGS. 11A-11B) and RV input function were extracted with GFADS. Time-activity curve from a region of interest drawn over the myocardium was fitted to the 2-compartment model. The estimated parameters are: K1=0.51 (SD=1.5%), k2=0.075 (SD=4.7%), k3=0.026 (SD=10.2%) and k4=0.016 (SD=10.4%). […] To evaluate the precision of K1 and k2, different study durations were used, ranging from one minute to 10 minutes to estimate K1 and k2 (with k3 and k4 fixed) as plotted for K1 in FIG. 14B.

The test system of data set [3] is myocardium. The data set can be described thus: Kinetic analysis of clinical 18F-Flurpiridaz rest and stress PET, two-compartment tissue model, three subjects. Format: in vivo, human. More on the design: unit not given here. As for the experimental part: To evaluate and compare the methods proposed in this work, simulation studies were performed based on the kinetic parameters derived from human studies conducted with ^18F-Flurpiridaz, formerly known as ^18F-BMS747158-02 (Lantheus Medical Imaging, North Billerica, MA). As a pyridazinone analog, ^18F-Flurpiridaz binds to the mitochondrial complex I with high affinity. The combination of high first pass extraction and complex I binding ensure a high uptake in the myocardium with long residence time, due to the high mitochondrial density in the myocardial wall. Data from a rat model have shown that ^18F-Flurpiridaz has an extraction fraction of greater than 90% over the physiological MBF range, which makes it an attractive perfusion tracer. Validation of MBF measured with ^18F-Flurpiridaz has been performed by Nekolla et al. in pigs by comparison to microsphere and ^13N-ammonia flow measurements.
As an example case, kinetic analysis was carried out based on ^18F-Flurpiridaz clinical data. ^18F-Flurpiridaz data was used to determine the local myocardial kinetics used in the simulations. […] In these studies, rest and stress imaging sessions were separated by at least 2 h. First, the rest and stress studies for each of the subjects were analyzed separately. […] For each subject, the acquired stress images were first aligned to the images of the rest study using the nonrigid image registration tool from SPM8 9 Ashburner, J., et al., Hum. Brain Mapp 7, 254-266, 1999). The LV and RV input functions for each subject and each study were extracted with generalized factor analysis on dynamic series (GFADS) (El Fakhri, G., et al., J. Nucl. Med. 46, 1264-1271, 2005; El Fakhri, G., et al., Med. Phys. 33, 1016-1024, 2006). The LV input function was used to approximate the plasma input function. No metabolite correction was performed. Because there is a 2-h gap between the rest and stress studies, the residual myocardial activity from the first tracer is mostly tracer bound to MC 1 and is nearly unaffected by the stressor. The rest and stress image volumes of the heart were segmented into 17 standard segments. Time-activity curves were calculated for each segment. The residual activity from the rest study was estimated and subtracted from the stress time-activity curve. Then, the kinetic parameters were estimated for each segment under the resting state with its 25-min time-activity curve. k3 was fixed as 0.026 (1/min) during the curve fitting. For the time-activity curve of the stress study, only data within the first 7.5 min were used in the curve fitting. After the parameters were estimated for all 17 segments, the cardiac flow reserve (CFR=K1,s/K1,r) of each segment was calculated. For the left anterior descending (LAD) territory, the segments with the two lowest CRF values were selected and the mean of each kinetic parameter was calculated from the estimated parameters of those two segments. The same calculation was repeated for right coronary artery (RCA) and left circumflex (LCX) as well. After two segments were picked for each territory, the kinetic parameters of the other 11 segments were averaged to compute the average kinetic parameters of the normal myocardium. The computation of the kinetic parameters of the normal myocardium, LAD, LCX, and RCA territories was performed separately for each subject. Table 1 summarizes kinetic parameters K1 and k2 estimated from the clinical ^18F-Flurpiridaz studies and used for Monte Carlo simulations.

For data set [4], the system named is myocardium. Conditions: cited from earlier work.
Data set [5] has as its system myocardium. The experiment in a line: Tracer properties in the two-tissue compartment model (extraction, binding ratio). The format is in vivo. An excerpt:
In another aspect, a flow measurement strategy incorporates knowledge of the basic properties of partially trapped tracers with a two-tissue compartment model, allowing simplifications appropriate to quantitative flow measurements. In this model the tracer can be in one of two states, either free, as the injected molecule, or bound to a receptor. In the example case of ^18F-Flurpiridaz, previous studies have shown that it binds to the mitochondrial complex I. The product of plasma concentration (Cr) and transport rate K1 is the force driving tracer from capillary plasma to the free space. Symbolically, K1 is the plasmato-tissue transport rate, FE, the product of flow F and the unidirectional capillary extraction fraction, E. k2 is a rate constant summarizing the egress from tissue to plasma. The rate constants k3 and k4 provide a summary description of binding and release of tracer. The full operational equation for the two compartment model is well known. In one aspect a focus is directed to the first few minutes after IV injection. […] Second, the ratio k3/(k2+k3), is between 0.2-0.6, meaning that after the first few minutes of scanning, about half the tracer entering the tissue space is bound and the effect of binding must be considered when interpreting the data. Third, it has been shown that at least an hour of scanning is required to obtain good estimates of all parameters. […]

Data set [6] has as its system myocardium. The settings on record: rat model, over the physiological MBF range; cited from earlier work.
Data set [7] deals with myocardial blood flow. The settings on record: intravenous infusion, from start of infusion; cited from earlier work.
Setting [8] is: resting state, 100 minutes of data, 1.25 mCi.
Setting [9] is: Subject 1, LAD territory, Stress.
[10] abbreviates: Subject 1, LCX territory, Stress.
The mark [11] stands for this setting: Subject 1, Normal myocardium, Rest.
Setting [12] is: Subject 1, Normal myocardium, Stress.
Where [13] appears, read: Subject 1, RCA territory, Stress.
Setting [14] is: Subject 2, LAD territory, Stress.
Setting [15] is: Subject 2, LCX territory, Stress.
The mark [16] stands for this setting: Subject 2, Normal myocardium, Rest.
[17] abbreviates: Subject 2, Normal myocardium, Stress.
Where [18] appears, read: Subject 2, RCA territory, Stress.
The mark [19] stands for this setting: Subject 3, LAD territory, Stress.
Where [20] appears, read: Subject 3, LCX territory, Stress.
Where [21] appears, read: Subject 3, Normal myocardium, Rest.
Where [22] appears, read: Subject 3, Normal myocardium, Stress.
The mark [23] stands for this setting: Subject 3, RCA territory, Stress.

`CC(C)(C)n1ncc(OCc2ccc(COCCF)cc2)c(Cl)c1=O` [18F-Flurpiridaz]: in data set [1], the “binding to mitochondrial complex I” value is given as “high affinity”. Also, in data set [2] (rest state, k3 fixed at values between 0 and 0.1 min^-1 (FIG. 2B)), the “estimated K1 as a function of the nominal value of k3” value is 0.498 to 0.507. Moreover, the K1 is 0.51 (SD=1.5%) in data set [2] (setting [8]); 0.56 in data set [3] (Subject 1, LAD territory, Rest); 1.04 in data set [3] (setting [9]); 0.58 in data set [3] (Subject 1, LCX territory, Rest); 0.99 in data set [3] (setting [10]); 0.68 in data set [3] (setting [11]). Further, the K1 is on record as 1.96 in data set [3] (setting [12]); 0.74 in data set [3] (Subject 1, RCA territory, Rest); 1.26 in data set [3] (setting [13]); 0.78 in data set [3] (Subject 2, LAD territory, Rest); 1.60 in data set [3] (setting [14]); 0.94 in data set [3] (Subject 2, LCX territory, Rest). For the same compound, the K1 in data set [3] (setting [15]) was 2.10; in data set [3] (setting [16]) it was 0.738 and 0.74; in data set [3] (setting [17]), 2.292 and 2.29; in data set [3] (Subject 2, RCA territory, Rest), 0.68; in data set [3] (setting [18]), 1.43; in data set [3] (Subject 3, LAD territory, Rest) it was 0.64. In addition, the K1 in data set [3] (setting [19]) stood at 1.58; in data set [3] (Subject 3, LCX territory, Rest), 0.69; in data set [3] (setting [20]), 1.61; in data set [3] (setting [21]), 0.60; in data set [3] (setting [22]) it was 2.09; in data set [3] (Subject 3, RCA territory, Rest) it was 0.58. Also, the K1 in data set [3] (setting [23]) was 0.68. Further, the k2 in data set [2] (setting [8]) was 0.075 (SD=4.7%); in data set [3] (Subject 1, LAD territory, Rest), 0.07; in data set [3] (setting [9]) it was 0.05; in data set [3] (Subject 1, LCX territory, Rest) it was 0.08; in data set [3] (setting [10]) it was 0.05; in data set [3] (setting [11]) it was 0.08. Also, the k2 in data set [3] (setting [12]) came to 0.07; in data set [3] (Subject 1, RCA territory, Rest), 0.08; in data set [3] (setting [13]) it was 0.08; in data set [3] (Subject 2, LAD territory, Rest), 0.11; in data set [3] (setting [14]), 0.07; in data set [3] (Subject 2, LCX territory, Rest) it was 0.13. Moreover, the k2 in data set [3] (setting [15]) is 0.10; in data set [3] (setting [16]) it was 0.108 and 0.11; in data set [3] (setting [17]), 0.118 and 0.12; in data set [3] (Subject 2, RCA territory, Rest), 0.08; in data set [3] (setting [18]), 0.11; in data set [3] (Subject 3, LAD territory, Rest), 0.04. Besides, the k2 worked out at 0.18 in data set [3] (setting [19]); 0.05 in data set [3] (Subject 3, LCX territory, Rest); 0.24 in data set [3] (setting [20]); 0.05 in data set [3] (setting [21]); 0.23 in data set [3] (setting [22]); 0.03 in data set [3] (Subject 3, RCA territory, Rest). Also, the k2 in data set [3] (setting [23]) was 0.17. For the same compound, the k3 in data set [2] (setting [8]) is reported as 0.026 (SD=10.2%). Moreover, the k4 in data set [2] (setting [8]) was 0.016 (SD=10.4%). For the same compound, the unidirectional extraction fraction entry in data set [4] (at all physiological flow rates) is recorded as “greater than 90%”. For the same compound, in data set [4] (in the coronary circulation), the first-pass extraction entry was “nearly complete”. The “ratio k3/(k2+k3)” value in data set [5] was 0.2-0.6. Moreover, in data set [6], the extraction fraction result is on record as “greater than 90%”.

Consider `Nc1ncnc2c1ncn2[C@@H]1O[C@H](CO)[C@@H](O)[C@H]1O` [adenosine], for which the “time to reach the peak hyperemia” value in data set [7] was 1.5 min.

In the case of `OCCN(CCO)c1nc(N2CCCCC2)c2nc(N(CCO)CCO)nc(N3CCCCC3)c2n1` [dipyridamole], the “time to reach the peak hyperemia” value in data set [7] is given as 6.5 min.
